Data from article PMC6326728, “eIF2B activator prevents neurological defects caused by a chronic integrated stress response” (eLife, 2019).

Experiments:
Assay in all cases: biochemical
Set-up in all cases: CEREP panel radioligand binding displacement, % inhibition of control specific binding by 10 uM 2BAct
GR (h) = target: T1, GR (h) (Homo sapiens, UniProt P04150); conditions: Type=Agonist radioligand; read-out: % inhibition of Control specific binding
T1 construct: gene NR3C1
Protocol: (§1) Supplementary file elife-42940-supp1.xlsx: Supplementary file 1. (A) Binding of 2BAct at 10 μM to the CEREP panel of receptors/enzymes/ion channels. Compound binding was calculated as a % inhibition of the binding of a radioactively labeled ligand specific for each target. Results showing inhibition or stimulation higher than 50% are considered to represent significant effects of the test compound. (B) Pharmacokinetic data from 2BAct dosing in mice. (C) GO Biological Processes identified by enrichment analysis of RNA-seq data. (D) List of genes used for enrichment analysis of scRNA-seq data.

CCK1(CCKA) (h) = target: T2, CCK1(CCKA) (h) (Homo sapiens, UniProt P32238); conditions: Type=Agonist radioligand; read-out: % inhibition of Control specific binding
T2 construct: gene CCKAR
Protocol: as §1

d (DOP) (h) = target: T3, d (DOP) (h) (Homo sapiens, UniProt P41143); conditions: Type=Agonist radioligand; read-out: % inhibition of Control specific binding
T3 construct: gene OPRD1
T3 sequence (P41143 whole entry): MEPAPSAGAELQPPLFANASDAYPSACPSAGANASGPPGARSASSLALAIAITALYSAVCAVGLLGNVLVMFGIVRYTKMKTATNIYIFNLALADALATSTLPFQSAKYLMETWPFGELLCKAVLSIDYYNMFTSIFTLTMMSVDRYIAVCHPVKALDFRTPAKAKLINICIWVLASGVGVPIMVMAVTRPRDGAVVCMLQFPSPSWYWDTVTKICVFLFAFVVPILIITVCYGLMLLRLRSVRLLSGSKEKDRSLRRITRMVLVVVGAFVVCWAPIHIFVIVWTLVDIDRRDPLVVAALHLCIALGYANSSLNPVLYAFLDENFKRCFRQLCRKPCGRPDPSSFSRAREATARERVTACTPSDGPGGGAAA
Protocol: as §1

5-HT2B (h) = target: T4, 5-HT2B (h) (Homo sapiens, UniProt P41595); conditions: Type=Agonist radioligand; read-out: % inhibition of Control specific binding
T4 construct: gene HTR2B
T4 sequence (P41595 whole entry): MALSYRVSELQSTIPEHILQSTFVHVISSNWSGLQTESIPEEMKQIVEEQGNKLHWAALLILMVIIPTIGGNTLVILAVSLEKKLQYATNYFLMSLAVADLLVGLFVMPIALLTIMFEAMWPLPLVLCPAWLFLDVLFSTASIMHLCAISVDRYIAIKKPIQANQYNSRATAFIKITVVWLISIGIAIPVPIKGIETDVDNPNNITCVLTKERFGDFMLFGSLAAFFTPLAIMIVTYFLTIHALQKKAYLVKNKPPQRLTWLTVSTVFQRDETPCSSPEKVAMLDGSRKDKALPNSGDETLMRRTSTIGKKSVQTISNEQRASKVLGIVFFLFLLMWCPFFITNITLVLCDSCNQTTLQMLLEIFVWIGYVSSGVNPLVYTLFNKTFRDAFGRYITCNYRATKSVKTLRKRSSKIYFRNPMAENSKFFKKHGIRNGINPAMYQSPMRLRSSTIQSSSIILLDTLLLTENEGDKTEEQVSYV
Protocol: as §1

VPAC1 (VIP1) (h) = target: T5, VPAC1 (VIP1) (h) (Homo sapiens, UniProt P32241); conditions: Type=Agonist radioligand; read-out: % inhibition of Control specific binding
T5 construct: gene VIPR1
T5 sequence (P32241 whole entry): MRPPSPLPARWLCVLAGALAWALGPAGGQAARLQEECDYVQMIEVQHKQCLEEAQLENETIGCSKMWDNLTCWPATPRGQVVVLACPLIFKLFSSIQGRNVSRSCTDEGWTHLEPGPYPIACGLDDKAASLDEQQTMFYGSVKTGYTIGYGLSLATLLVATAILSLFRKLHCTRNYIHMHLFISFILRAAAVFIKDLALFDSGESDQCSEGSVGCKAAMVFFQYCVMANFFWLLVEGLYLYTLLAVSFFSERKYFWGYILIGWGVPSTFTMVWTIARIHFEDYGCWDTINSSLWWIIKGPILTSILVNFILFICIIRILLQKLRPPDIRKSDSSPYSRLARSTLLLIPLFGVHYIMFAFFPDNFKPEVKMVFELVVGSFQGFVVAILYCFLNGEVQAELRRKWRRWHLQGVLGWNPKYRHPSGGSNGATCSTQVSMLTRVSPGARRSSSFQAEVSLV
Protocol: as §1

a1B (h) = target: T6, a1B (h) (Homo sapiens, UniProt P35368); conditions: Type=Antagonist radioligand; read-out: % inhibition of Control specific binding
T6 construct: gene ADRA1B
T6 sequence (P35368 whole entry): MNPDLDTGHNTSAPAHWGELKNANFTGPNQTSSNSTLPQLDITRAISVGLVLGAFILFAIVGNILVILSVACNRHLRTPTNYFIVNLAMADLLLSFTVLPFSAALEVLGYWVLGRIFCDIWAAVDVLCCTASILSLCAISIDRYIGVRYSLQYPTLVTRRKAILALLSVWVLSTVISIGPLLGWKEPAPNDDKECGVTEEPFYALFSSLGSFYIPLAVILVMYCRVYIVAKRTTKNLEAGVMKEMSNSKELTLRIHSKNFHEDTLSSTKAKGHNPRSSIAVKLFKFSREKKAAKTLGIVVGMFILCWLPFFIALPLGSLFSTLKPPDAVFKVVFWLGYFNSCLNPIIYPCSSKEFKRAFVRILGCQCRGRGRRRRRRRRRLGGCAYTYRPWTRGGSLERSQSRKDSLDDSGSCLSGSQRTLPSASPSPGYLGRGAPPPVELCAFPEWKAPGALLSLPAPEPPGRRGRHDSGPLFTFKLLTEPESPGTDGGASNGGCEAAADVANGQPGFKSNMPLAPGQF
Protocol: as §1

GABA-A1 (h) (a1, b2, g2) = target: T7, GABA-A1 (h) (a1, b2, g2) (Homo sapiens, UniProt P14867+P18507+P47870); conditions: Type=Agonist radioligand; read-out: % inhibition of Control specific binding
T7 construct: gene GABRA1; a1, b2, g2
T7 sequence (P14867 whole entry): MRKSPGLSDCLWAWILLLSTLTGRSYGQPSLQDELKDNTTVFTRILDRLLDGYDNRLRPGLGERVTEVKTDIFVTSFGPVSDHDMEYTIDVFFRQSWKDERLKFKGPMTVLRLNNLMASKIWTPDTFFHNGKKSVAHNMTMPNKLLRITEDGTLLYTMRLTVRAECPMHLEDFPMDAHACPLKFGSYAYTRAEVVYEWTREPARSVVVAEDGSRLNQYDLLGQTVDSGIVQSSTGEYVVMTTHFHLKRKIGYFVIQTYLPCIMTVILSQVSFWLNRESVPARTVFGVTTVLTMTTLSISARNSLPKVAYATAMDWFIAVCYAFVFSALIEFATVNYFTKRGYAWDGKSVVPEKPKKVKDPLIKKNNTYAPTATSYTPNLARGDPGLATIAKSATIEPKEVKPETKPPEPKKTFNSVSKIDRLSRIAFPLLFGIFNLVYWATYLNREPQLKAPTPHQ
T7 sequence (P18507 whole entry): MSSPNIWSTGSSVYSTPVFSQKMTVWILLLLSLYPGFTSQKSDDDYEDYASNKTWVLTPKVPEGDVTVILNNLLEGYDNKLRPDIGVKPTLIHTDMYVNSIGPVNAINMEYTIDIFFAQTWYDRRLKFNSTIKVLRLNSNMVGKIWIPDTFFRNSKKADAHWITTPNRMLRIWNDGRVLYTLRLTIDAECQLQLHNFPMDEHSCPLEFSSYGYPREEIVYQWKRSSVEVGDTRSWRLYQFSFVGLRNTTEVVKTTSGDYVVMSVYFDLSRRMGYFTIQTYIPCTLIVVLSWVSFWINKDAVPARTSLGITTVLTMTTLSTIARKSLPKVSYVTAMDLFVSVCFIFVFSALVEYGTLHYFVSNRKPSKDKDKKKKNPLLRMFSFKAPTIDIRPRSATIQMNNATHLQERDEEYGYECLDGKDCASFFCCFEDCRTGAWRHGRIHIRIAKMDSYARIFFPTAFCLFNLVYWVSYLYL
T7 sequence (P47870 whole entry): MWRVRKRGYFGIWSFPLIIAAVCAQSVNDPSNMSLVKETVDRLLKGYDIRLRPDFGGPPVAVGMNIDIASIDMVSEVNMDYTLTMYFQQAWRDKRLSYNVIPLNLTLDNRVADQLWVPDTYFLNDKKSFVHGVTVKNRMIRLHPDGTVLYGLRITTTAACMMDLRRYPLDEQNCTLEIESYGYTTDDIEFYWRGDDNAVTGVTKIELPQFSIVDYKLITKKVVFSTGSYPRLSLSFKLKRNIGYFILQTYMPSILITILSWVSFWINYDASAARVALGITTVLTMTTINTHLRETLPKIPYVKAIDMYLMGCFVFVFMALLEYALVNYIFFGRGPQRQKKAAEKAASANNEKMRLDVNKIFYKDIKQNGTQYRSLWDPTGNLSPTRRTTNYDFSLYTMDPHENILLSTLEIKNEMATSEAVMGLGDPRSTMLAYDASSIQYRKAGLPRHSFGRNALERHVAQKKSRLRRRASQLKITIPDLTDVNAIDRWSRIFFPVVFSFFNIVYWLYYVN
Protocol: as §1

PPARg (h) = PPARg (h) (Homo sapiens, UniProt P37231); conditions: Type=Agonist radioligand; read-out: % inhibition of Control specific binding
Protocol: as §1

D2S (h) = target: T8, D2S (h) (Homo sapiens, UniProt P14416); conditions: Type=Antagonist radioligand; read-out: % inhibition of Control specific binding
T8 construct: gene DRD2; short isoform (D2S)
T8 sequence (P14416 whole entry, canonical isoform): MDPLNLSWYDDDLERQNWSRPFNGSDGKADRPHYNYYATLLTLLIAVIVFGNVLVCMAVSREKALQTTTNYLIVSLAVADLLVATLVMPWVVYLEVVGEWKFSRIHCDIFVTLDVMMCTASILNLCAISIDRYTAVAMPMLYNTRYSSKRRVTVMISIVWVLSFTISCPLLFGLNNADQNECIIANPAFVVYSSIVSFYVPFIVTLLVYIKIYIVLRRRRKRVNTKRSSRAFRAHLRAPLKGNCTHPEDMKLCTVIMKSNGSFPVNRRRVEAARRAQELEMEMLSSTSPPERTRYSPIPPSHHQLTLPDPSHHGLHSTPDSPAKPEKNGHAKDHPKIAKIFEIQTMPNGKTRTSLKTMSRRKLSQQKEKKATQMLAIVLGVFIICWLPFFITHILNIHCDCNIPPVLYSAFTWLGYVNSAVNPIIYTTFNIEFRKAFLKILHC
Protocol: as §1

A1 (h) = target: T9, A1 (h) (Homo sapiens, UniProt P30542); conditions: Type=Antagonist radioligand; read-out: % inhibition of Control specific binding
T9 construct: gene ADORA1
T9 sequence (P30542 whole entry): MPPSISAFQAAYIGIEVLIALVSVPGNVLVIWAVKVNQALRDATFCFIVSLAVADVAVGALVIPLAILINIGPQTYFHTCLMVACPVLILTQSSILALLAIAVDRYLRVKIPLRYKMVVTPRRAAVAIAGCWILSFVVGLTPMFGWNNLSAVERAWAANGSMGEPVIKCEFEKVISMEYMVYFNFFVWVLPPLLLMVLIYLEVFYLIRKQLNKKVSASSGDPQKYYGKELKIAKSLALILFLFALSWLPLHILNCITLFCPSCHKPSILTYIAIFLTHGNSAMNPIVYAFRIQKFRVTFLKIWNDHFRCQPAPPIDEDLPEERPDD
Protocol: as §1

5-HT transporter (h) = target: T10, 5-HT transporter (h) (Homo sapiens, UniProt P31645); conditions: Type=Antagonist radioligand; read-out: % inhibition of Control specific binding
T10 construct: gene SLC6A4
T10 sequence (P31645 whole entry): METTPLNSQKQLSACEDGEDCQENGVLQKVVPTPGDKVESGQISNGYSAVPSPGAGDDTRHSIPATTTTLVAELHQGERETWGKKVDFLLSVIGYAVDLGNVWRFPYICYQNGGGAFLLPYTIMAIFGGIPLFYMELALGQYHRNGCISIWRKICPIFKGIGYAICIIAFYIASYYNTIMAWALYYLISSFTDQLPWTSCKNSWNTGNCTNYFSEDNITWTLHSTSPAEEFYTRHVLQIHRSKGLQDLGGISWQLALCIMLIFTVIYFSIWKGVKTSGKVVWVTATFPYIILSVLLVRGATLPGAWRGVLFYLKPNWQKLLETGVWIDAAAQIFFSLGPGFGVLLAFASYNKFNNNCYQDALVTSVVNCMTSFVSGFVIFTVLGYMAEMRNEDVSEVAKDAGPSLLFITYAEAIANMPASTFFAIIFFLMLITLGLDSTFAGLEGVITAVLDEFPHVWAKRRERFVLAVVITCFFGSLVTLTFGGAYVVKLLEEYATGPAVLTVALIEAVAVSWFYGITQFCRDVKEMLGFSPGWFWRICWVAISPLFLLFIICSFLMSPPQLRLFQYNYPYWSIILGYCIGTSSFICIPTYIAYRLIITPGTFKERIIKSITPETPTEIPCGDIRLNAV
Protocol: as §1

5-HT7 (h) = target: T11, 5-HT7 (h) (Homo sapiens, UniProt P34969); conditions: Type=Agonist radioligand; read-out: % inhibition of Control specific binding
T11 construct: gene HTR7
Protocol: as §1

AT2 (h) = target: T12, AT2 (h) (Homo sapiens, UniProt P50052); conditions: Type=Agonist radioligand; read-out: % inhibition of Control specific binding
T12 construct: gene AGTR2
Protocol: as §1

m (MOP) (h) = target: T13, m (MOP) (h) (Homo sapiens, UniProt P35372); conditions: Type=Agonist radioligand; read-out: % inhibition of Control specific binding
T13 construct: gene OPRM1
Protocol: as §1

ET-B (h) = target: T14, ET-B (h) (Homo sapiens, UniProt P24530); conditions: Type=Agonist radioligand; read-out: % inhibition of Control specific binding
T14 construct: gene EDNRB
Protocol: as §1

A3 (h) = target: T15, A3 (h) (Homo sapiens, UniProt P0DMS8); conditions: Type=Agonist radioligand; read-out: % inhibition of Control specific binding
T15 construct: gene ADORA3
Protocol: as §1

O=C(COc1ccc(Cl)c(F)c1)NC12CC(NC(=O)c3cnc(C(F)F)cn3)(C1)C2 [2BAct]
inhibition at 10 µM (GR (h)): 3.2% | inhibition at 10 µM (CCK1(CCKA) (h)): 5.2% | inhibition at 10 µM (d (DOP) (h)): 2.9% | inhibition at 10 µM (5-HT2B (h)): 8.6% | inhibition at 10 µM (VPAC1 (VIP1) (h)): -9.7% | inhibition at 10 µM (a1B (h)): -14.2% | inhibition at 10 µM (GABA-A1 (h) (a1, b2, g2)): -19.5% | inhibition at 10 µM (PPARg (h)): 19% | inhibition at 10 µM (D2S (h)): 1.3% | inhibition at 10 µM (A1 (h)): 2.1% | inhibition at 10 µM (5-HT transporter (h)): 7.9% | inhibition at 10 µM (5-HT7 (h)): 3.9% | inhibition at 10 µM (AT2 (h)): 0.2% | inhibition at 10 µM (m (MOP) (h)): 3% | inhibition at 10 µM (ET-B (h)): 6% | inhibition at 10 µM (A3 (h)): 20.6%
